Measured values published in patent publication US8642736B2, “Casein complexes” (DSM IP Assets B. V., priority 2006, dated 2014).

Legend:
[1] = Dispersion stability of 10% dispersion: resveratrol content, upper part vs after mixing; format: physicochemical; details: aqueous dispersion; likely much less using similar dispersion conditions
Experimental: The powder (2.5 g) was dispersed in deionized water (47.5 g) with stirring. The dispersion was centrifuged at 3000 rpm for 5 minutes (Sigma Centrifuge 6-10, Sigma Laborzentrifugen GmbH, Germany) to remove the un-dispersible material. The supernatant was lyophilized to yield 1.7 g powder. The powder (1 g) was suspended in deionized water (9 g) to give a 10% homogenous dispersion. A sample of the dispersion was placed in a test tube and stored at room temperature for 3 hours and then at 5° C. for 1 day. A small sample was taken from the upper part of the test tube and then a sample was taken after mixing. […] The results indicated the dispersion stability. The highly concentrate dispersion can be conveniently used for various applications in pharmaceuticals and cosmetics, food and feed, especially in beverages.
A dispersion of more than 0.005% (likely much less using similar dispersion conditions) of non-complexed resveratrol would result in precipitation of resveratrol.

[2] = Storage stability: resveratrol in supernatant of aqueous dispersions (UV method); format: physicochemical
Experimental: Resveratrol-caseinate complex used was the oven-dried material described in Example 8 (non-dispersible material was not removed by centrifugation). Crystalline resveratrol was included for comparison.
Complexed and crystalline resveratrol was dispersed in deionized water of pH 6.8 or 3.0 to give a final target dispersion concentration of 60 and 80 ppm. The desired pH was achieved by pH adjustment using dilute HCl or NaHCO3 The samples were heated in a water bath till 80° C. and then held at 80° C. for 1 minute. The samples were stored in the dark at 25° C. and 5° C. During storage, resveratrol recrystallized and precipitated in some samples. The resveratrol concentration in the supernatant were determined by a UV method and the results are shown below, […]

[3] = target 60 ppm, pH 3.0, stored in the dark at 5 C.
[4] = target 60 ppm, pH 3.0, stored in the dark at 25 C.
[5] = target 60 ppm, pH 6.8, stored in the dark at 5 C.
[6] = target 60 ppm, pH 6.8, stored in the dark at 25 C.
[7] = target 80 ppm, pH 3.0, stored in the dark at 5 C.
[8] = target 80 ppm, pH 3.0, stored in the dark at 25 C.
[9] = target 80 ppm, pH 6.8, stored in the dark at 5 C.
[10] = target 80 ppm, pH 6.8, stored in the dark at 25 C.

SMILES: Oc1ccc(C=Cc2cc(O)cc(O)c2)cc1 [Resveratrol, 3,4′,5-trihydroxystilbene]
- dispersion concentration that would result in precipitation of resveratrol [1]: more than 0.005%
- Resveratrol in supernatant, Initial ([2]; target 60 ppm, pH 3.0, 5 C.): 58 ppm
- Resveratrol in supernatant, Initial ([2]; target 60 ppm, pH 3.0, 25 C.): 58 ppm
- Resveratrol in supernatant, 1 week [2, 3]: 28 ppm
- Resveratrol in supernatant, 1 week (% in parentheses) [2, 3]: 48%
- Resveratrol in supernatant, 2.4 week [2, 3]: 19 ppm
- Resveratrol in supernatant, 2.4 week (% in parentheses) [2, 3]: 33%
- Resveratrol in supernatant, 1 week [2, 4]: 43 ppm
- Resveratrol in supernatant, 1 week (% in parentheses) [2, 4]: 74%
- Resveratrol in supernatant, 2.4 week [2, 4]: 39 ppm
- Resveratrol in supernatant, 2.4 week (% in parentheses) [2, 4]: 67%
- Resveratrol in supernatant, Initial ([2]; target 60 ppm, pH 6.8, 5 C.): 60 ppm
- Resveratrol in supernatant, Initial ([2]; target 60 ppm, pH 6.8, 25 C.): 60 ppm
- Resveratrol in supernatant, 1 week [2, 5]: 23 ppm
- Resveratrol in supernatant, 1 week (% in parentheses) [2, 5]: 38%
- Resveratrol in supernatant, 2.4 week [2, 5]: 17 ppm
- Resveratrol in supernatant, 2.4 week (% in parentheses) [2, 5]: 28%
- Resveratrol in supernatant, 1 week [2, 6]: 45 ppm
- Resveratrol in supernatant, 1 week (% in parentheses) [2, 6]: 75%
- Resveratrol in supernatant, 2.4 week [2, 6]: 39 ppm
- Resveratrol in supernatant, 2.4 week (% in parentheses) [2, 6]: 65%
- Resveratrol in supernatant, Initial ([2]; target 80 ppm, pH 3.0, 5 C.): 80 ppm
- Resveratrol in supernatant, Initial ([2]; target 80 ppm, pH 3.0, 25 C.): 80 ppm
- Resveratrol in supernatant, 1 week [2, 7]: 28 ppm
- Resveratrol in supernatant, 1 week (% in parentheses) [2, 7]: 35%
- Resveratrol in supernatant, 2.4 week [2, 7]: 16 ppm
- Resveratrol in supernatant, 2.4 week (% in parentheses) [2, 7]: 20%
- Resveratrol in supernatant, 1 week [2, 8]: 47 ppm
- Resveratrol in supernatant, 1 week (% in parentheses) [2, 8]: 59%
- Resveratrol in supernatant, 2.4 week [2, 8]: 38 ppm
- Resveratrol in supernatant, 2.4 week (% in parentheses) [2, 8]: 48%
- Resveratrol in supernatant, Initial ([2]; target 80 ppm, pH 6.8, 5 C.): 79 ppm
- Resveratrol in supernatant, Initial ([2]; target 80 ppm, pH 6.8, 25 C.): 79 ppm
- Resveratrol in supernatant, 1 week [2, 9]: 24 ppm
- Resveratrol in supernatant, 1 week (% in parentheses) [2, 9]: 30%
- Resveratrol in supernatant, 2.4 week [2, 9]: 16 ppm
- Resveratrol in supernatant, 2.4 week (% in parentheses) [2, 9]: 20%
- Resveratrol in supernatant, 1 week [2, 10]: 45 ppm
- Resveratrol in supernatant, 1 week (% in parentheses) [2, 10]: 57%
- Resveratrol in supernatant, 2.4 week [2, 10]: 43 ppm
- Resveratrol in supernatant, 2.4 week (% in parentheses) [2, 10]: 54%
